Laboratory results taken from patent US20050232933A1, “CMV-IE1 peptides and method of use” (priority 2003, published 2005).
Like-named read-outs stand apart in the source and are kept apart here.

Assays:
[1] = target: T1, HLA A*0201 molecule on T2 cells (Homo sapiens, UniProt P04439, D140Y/D185E/D98H/E176V/E277Q/G131W/G231S/I119V/I121R/I166T/I218V/L300P/L318F/N151K/N90K/P208A/P217A/Q86G/Q94H/R138H/R169H/T345S); type: binding
T1 construct: host or cells: T2 cells
From the text: T2 cells, ATCC accession no. CRL-1992, are defective for endogenous class I presentation, but peptide binding to the MHC molecule stabilizes its expression on the cell surface. The stabilized MHC molecule can be detected by flow cytometry with a monoclonal antibody to the HLA A*0201 molecule. T2 cells express HLA A*0201 but not the HLA DR and are class II MHC antigen negative. […] A293 cells are human embryonic kidney cells. A293-IE1 is a stably transfected human kidney cell line endogenously expressing the CMV-IE1 protein. All cells used in experiments were mycoplasma-free and were maintained in RPMI-1640 supplemented with 10% FBS, penicillin-streptomycin and 2 mM glutamine.
T2 cells are defective for endogenous class I presentation but the presence of peptide binding to the MHC molecule will stabilize its expression on the cell surface. The stabilized MHC molecule can be detected by flow cytometry using a monoclonal antibody to the HLA A-A*0201 molecule. Peptide sequences were selected using two algorithms for HLA peptide predicted motifs publicly available on the internet ([…] (Rammensee et al., Immunogenetics 50:213-219, 1999) and BIMAS).
The peptides were assayed on T2 cells for their ability to bind and stabilize the A2 molecules on the cell surface according to methods described in Gricks et al., Cancer Res. 61:5145-5152, 2001, with modifications. […] The level of stabilized HLA-A2 on the surface of the T2 cells was determined according to known methods using monoclonal antibody BB7.2, which specifically recognizes HLA A*0201 as described in BenMohamed et al., Hum. Immunol. 61:764-779, 2000 and Parham et al., Hum. Immunol. 3:277-299, 1981 and a FITC-labeled goat anti-mouse F(ab′)2. Fluorescence was detected with a FACSCalibur™ flowcytometer. Numbers in the peak channel were compared to control T2 cells that contained HLA mismatch B7 peptide or no peptide.
The results were expressed as fold increased fluorescence compared to the mean of no peptide and HLA mismatch B7 peptide.

[2] = test system: CD8 human cells; test: Summary of stimulatory CMV IE1 HLA A*0201 restricted peptides, present report (Table I, A); type: cell-based
From the text: These mutations may contribute to the low incidence of response to individual IE1 peptides. The locations of putative mutations are underlined. See Frankenberg et al., Virology 295: 208-216, 2002. Typically, the mutations that would most dramatically affect the binding of an epitope into the MHC molecule are situated at the anchor site, amino acid positions p2 and p9 of a peptide. See Falk et al., Semin. Immunol. 15:81-94, 1993; Zaia et al., J. Virol. 75:2472-2474, 2001. The only peptide showing a p2-p9 unstable mutation site is IE1-315, first described by Retiere (J. Virol. 74:3948-3952, 2000) using a TNF release assay. […] See Khan et al., J. Infect. Dis. 185:1025-1034, 2002. However IE1-316, which contains possible mutations at site p1 and p8, was more frequently recognized in this same study (6 out of 18) in an IFN-γ elispot assay. IE1-297, possibly mutated at p1 and p5, is a strong candidate for CMV immune recognition as well, since 3 of 4 patient PBLs responded in an ICC (intracellular cytokine) assay. Therefore, despite the presence of point mutation sites in IE1 epitopes, provided the anchor sites are intact, IE1-297 and IE1-316 peptides are presented by the MHC molecule after immunization with or exposure to CMV in HLA A*0201 subjects. In summary, IE1-297, IE1-316 and IE1-256 are peptides that stimulate CD8 human cells (Table I).

[3] = test system: CD8 human cells; conditions: cited from earlier work; for Stimulatory grade, B: Khan et al. 2002 (ELISPOT): HLA A*0201
[4] = test system: CD8 human cells; conditions: HLA A*0201; (pN) = peptide number in the source; cited from earlier work
[5] = test system: CD8+ peripheral blood lymphocytes; test: ICC/IFN-γ assay, cryopreserved PBL of HLA-A2 HCT subjects; conditions: CMV reactivation
Procedure: Five CMV seropositive HLA A2 human subjects showing CMV reactivation within 100 days post hematopoietic cell transplantation (HCT) and 6 CMV seropositive subjects without CMV reactivation were followed at days 40, 90, 120, 150, 180 and 360 post HCT. The intracellular IFN-γ response (ICC) to CMVpp65p495-503, CMV-IE1-256, IE1-297 and IE1-316 and the CD8 MHC/peptide binding (tetramer assay) using CMVpp65p495-503, IE1-297 and IE1-316 were analyzed in two groups.
Eleven HLA A*0201 HCT recipients, at risk for CMV infection because of donor and/or recipient CMV-seropositivity, were enrolled in this study. The subjects included related sibling donors and recipients of allogeneic HCT for hematologic malignancies as well as HCT recipients of matched unrelated donor (MUD).
Peripheral blood mononuclear cells (PBMC) from heparin-treated whole blood were isolated using Histopaque™-1077 density gradients, washed with 1× phosphate-buffered saline (PBS) and cryopreserved in aliquots of 3×10^6 to 5×10^6 cells/mL in 90% fetal bovine serum (FBS) and 10% dimethylsulfoxide. The plasma was collected by centrifugation, filtered through 0.45 μm Acrodisc™ filters and stored at −20° C. until DNA extraction.
Donor samples (except for MUD subjects) were drawn before administration of granulocyte-colony stimulating factor (G-CSF) and later at the time of harvest. Recipient blood samples were collected at day 40, 90, 120, 150, 180 and 360 post-transplant for ICC and tetramer binding assays, and the CMV reactivation was monitored starting at day 21 post-HCT and twice weekly until day 100 using a shell vial assay and quantitative PCR.
To evaluate the immune reactivity to CMV in HLA-A2 subjects, cryopreserved peripheral blood lymphocytes (PBL) from the subjects were stimulated with peptides derived from CMV-pp65 and CMV-IE1 proteins. […] The positive stimulation control contained phytohemagglutinin (PHA) and the negative control contained HIV peptide.
After 1 hour incubation at 37° C. in 5% CO2, 1 μL (stock 5 mg/mL) of Brefeldin A, a cytokine secretion inhibitor, was added to the cells and further incubated overnight. Samples were then washed with 1×PBS and 0.5% bovine serum albumin and stained for 20 minutes in the dark with 5 μL of anti-CD8 antibody conjugated to streptavidin-phycoerythrin (CD8-PE). The cells were fixed and permeabilized for 20 minutes using the Cytofix/Cytoperm Kit™ (Pharmingen™) and stained for 30 minutes at 4° C. in the dark with 1 μL of anti-IFN-γ conjugated with streptavidin-allophycocyanin (APC).
After purification, the peptides were dissolved in 10% DMSO/water to a concentration of 5 mM and used at a final concentration of 25 μM for T cell stimulation. […] The latter two peptides served as a positive and negative control, respectively.
For FACS, patient cell samples were washed twice with 1× Cytofix™ Wash Solution for analysis by fluorescence-activated cell sorting using a FACScalibur™ instrument. The lymphocytes were gated based on forward and side scatter. A minimum of 50,000 events were analyzed per sample. The reported data are the values obtained after subtraction of background levels acquired with HIV peptide stimulation (which ranged from 0.0% to 0.5%).

[6] = test system: CD8 cells; test: Intracellular cytokine (ICC) IFN-γ assay, fresh blood from CMV seropositive stem cell transplantation subjects; type: cell-based, human
Procedure: Having identified IE1-297 peptide as an important epitope in the process of CTL response to CMV-IE1 immunization in A2 transgenic mice, this peptide was tested to determine if it was recognized by CD8 cells from CMV seropositive human subjects. Fresh whole blood samples were collected from four individuals susceptible to CMV reactivation 40, 120, 150 and 180 days after stem cell transplantation. Frozen white blood cells from the human subjects were stimulated for 6 hours with 100 μM IE1-297, pp65(p495) or HIV peptide (negative control) and PHA (positive control). The cells then were stained to detect CD8 and IFN-γ production. Four patient samples were analyzed by cytokine flow cytometry.

[7] = T2 cells, 100 μM peptide, 18 hours
[8] = fluorescence compared to the mean of no peptide and HLA mismatch B7 peptide, 100 μM peptide

## VLAELVKQI (listed as Human cytomegalovirus) [IE1-81]
[1]; [7]
  peak channel: 495
[1]; [8]
  Fold Increase: 2 fold
[2]
  Stimulatory grade, A: Present Report: neg
[3]
  Stimulatory grade, B: Khan et al. 2002 (ELISPOT): neg
[4]
  Stimulatory grade, C: Frankenberg et al. 2002 (IVS4): (p2) neg

## RPHERNGFTVL (listed as Human cytomegalovirus) [CMVB7-265]
[1]; [7]
  peak channel: 261
[1]; [8]
  Fold Increase: 1 fold

## TPRVTGGGAM [CMVB7-417]
[1]
  Fold Increase: 1 fold
  peak channel: 232

## SLLSEFCRV (listed as Human cytomegalovirus) [IE1-303]
[3]
  Stimulatory grade, B: Khan et al. 2002 (ELISPOT): neg
[4]
  Stimulatory grade, C: Frankenberg et al. 2002 (IVS4): (p9) poor

## ILGADPLRV (listed as Human cytomegalovirus) [IE1-355]
[3]
  Stimulatory grade, B: Khan et al. 2002 (ELISPOT): neg
[4]
  Stimulatory grade, C: Frankenberg et al. 2002 (IVS4): (p10) poor

## LLSEFCRV (LLSEFCRVL; listed as Human cytomegalovirus) [IE1-304]
[1]; [7]
  peak channel: 433
[1]; [8]
  Fold Increase: 1.8 fold
[2]
  Stimulatory grade, A: Present Report: neg
[3]
  Stimulatory grade, B: Khan et al. 2002 (ELISPOT): neg
[4]
  Stimulatory grade, C: Frankenberg et al. 2002 (IVS4): (p4) neg

## YVLEETSVM (listed as Human cytomegalovirus) [IE1-315]
[3]; out of 18 subjects, Khan et al.
  subjects recognizing the peptide in IFN-γ elispot: one subject out of 18

## phytohemagglutinin [PHA]
[5]; Subj. 54, Day 40 post-HCT
  % CD8+/IFN-γ+ after peptide stimulation: 0.54%
[5]; Subj. 54, Day 90 post-HCT
  % CD8+/IFN-γ+ after peptide stimulation: 5.34%
[5]; Subj. 54, Day 150 post-HCT
  % CD8+/IFN-γ+ after peptide stimulation: 1.78%
[5]; Subj. 54, Day 180 post-HCT
  % CD8+/IFN-γ+ after peptide stimulation: 4.27%
[5]; Subj. 54, Day 360 post-HCT
  % CD8+/IFN-γ+ after peptide stimulation: 6.91%
[5]; Subj. 70(D) donor, postG
  % CD8+/IFN-γ+ after peptide stimulation: 0.63%
[5]; Subj. 70(D) donor, preG
  % CD8+/IFN-γ+ after peptide stimulation: 0.24%
[5]; Subj. 70, Day 40 post-HCT
  % CD8+/IFN-γ+ after peptide stimulation: 0.64%
[5]; Subj. 70, Day 90 post-HCT
  % CD8+/IFN-γ+ after peptide stimulation: 5.09%
[5]; Subj. 70, Day 120 post-HCT
  % CD8+/IFN-γ+ after peptide stimulation: 4.01%
[5]; Subj. 70, Day 150 post-HCT
  % CD8+/IFN-γ+ after peptide stimulation: 2.44%
[5]; Subj. 70, Day 180 post-HCT
  % CD8+/IFN-γ+ after peptide stimulation: 2.88%
[5]; Subj. 70, Day 360 post-HCT
  % CD8+/IFN-γ+ after peptide stimulation: 3.5%
[5]; Subj. 93(D) donor, postG
  % CD8+/IFN-γ+ after peptide stimulation: 6.08%
[5]; Subj. 93(D) donor, preG
  % CD8+/IFN-γ+ after peptide stimulation: 2.08%
[5]; Subj. 93, Day 40 post-HCT
  % CD8+/IFN-γ+ after peptide stimulation: 6.32%
[5]; Subj. 93, Day 120 post-HCT
  % CD8+/IFN-γ+ after peptide stimulation: 12.46%
[5]; Subj. 93, Day 150 post-HCT
  % CD8+/IFN-γ+ after peptide stimulation: 21.01%
[5]; Subj. 93, Day 360 post-HCT
  % CD8+/IFN-γ+ after peptide stimulation: 16.5%
[5]; Subj. 94, Day 40 post-HCT
  % CD8+/IFN-γ+ after peptide stimulation: 23.17%
[5]; Subj. 94, Day 90 post-HCT
  % CD8+/IFN-γ+ after peptide stimulation: 21.58%
[5]; Subj. 94, Day 120 post-HCT
  % CD8+/IFN-γ+ after peptide stimulation: 14.53%
[5]; Subj. 94, Day 150 post-HCT
  % CD8+/IFN-γ+ after peptide stimulation: 15.03%
[5]; Subj. 94, Day 180 post-HCT
  % CD8+/IFN-γ+ after peptide stimulation: 29.1%
[5]; Subj. 94, Day 360 post-HCT
  % CD8+/IFN-γ+ after peptide stimulation: 20.21%
[5]; Subj. 105(D) donor, postG
  % CD8+/IFN-γ+ after peptide stimulation: 5.3%
[5]; Subj. 105, Day 40 post-HCT
  % CD8+/IFN-γ+ after peptide stimulation: 11.56%
[5]; Subj. 105, Day 90 post-HCT
  % CD8+/IFN-γ+ after peptide stimulation: 40.76%
[5]; Subj. 105, Day 120 post-HCT
  % CD8+/IFN-γ+ after peptide stimulation: 29.38%
[5]; Subj. 105, Day 150 post-HCT
  % CD8+/IFN-γ+ after peptide stimulation: 26.14%
[6]; Patient No. 70, 150 days post-transplant
  % CD8+/IFN-γ: <33.15%
[6]; Patient No. 70, 180 days post-transplant
  % CD8+/IFN-γ: 19.2%
[6]; Patient No. 93, 120 days post-transplant
  % CD8+/IFN-γ: 37.6%
[6]; Patient No. 100, 40 days post-transplant
  % CD8+/IFN-γ: 2.09%
